Earlier results in patent publication US20180327354A1, “Unnatural Analogues of Calcitriol and Uses Thereof” (Vidasym, Inc., priority 2009, published 2018).
Read-outs that look alike come from different tables or passages of the source.

Columns and labels:
[1] = test system: uremic rats; conditions: cited from earlier work
[2] = clinical studies, Martin et al., 2001; cited from earlier work
[3] = Slatopolsky et al., 1998, converted from ng/rat

C[C@H](/C=C/[C@H](C)C(C)(C)O)[C@H]1CC[C@H]2/C(=C/C=C3C[C@@H](O)C[C@H](O)C3)CCC[C@]12C [paricalcitol]
dose at which compound raises serum Ca ([1]; Noonan et al., 2008): 0.083 µg/kg
dose at which compound starts to suppress serum PTH ([1]; Noonan et al., 2008): 0.083 µg/kg
dose at which compound raises serum Ca [1, 3]: ~0.0625 µg/kg
dose at which compound starts to suppress serum PTH [1, 3]: ~0.02 µg/kg
dose at which compound raises serum Ca ([1]; Slatopolsky et al., 1998): 25 ng/rat
dose at which compound starts to suppress serum PTH ([1]; Slatopolsky et al., 1998): 8 ng/rat
fold less potent in raising serum calcium than calcitriol [2]: 10 fold
fold less potent in suppressing PTH than calcitriol [2]: about 3 fold
